Measured values reported in PubChem BioAssay (NCI).
Several values for one entry are separate records, joined by “and”; a condition that tells them apart may be missing. Equal values may be shown once.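 Five compound concentrations were applied to cells in 96-well plates for 48 hours; endpoints were derived by simple linear interpolation of the resulting dose-response curve. GI50: concentration for 50% inhibition of growth. TGI: total growth inhibition.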

Assays:
Assay in all cases: NCI-60 cell line screen, 48 h
HT29 colon = tested on: HT29 colon
NCI-H23 lung = tested on: NCI-H23 lung
A498 renal = tested on: A498 renal
U251 CNS = tested on: U251 CNS
HOP-92 NSCLC = tested on: HOP-92 NSCLC
LOX IMVI melanoma = tested on: LOX IMVI melanoma
SW-620 colon = tested on: SW-620 colon
TK-10 renal = tested on: TK-10 renal
ACHN renal = tested on: ACHN renal
UO-31 renal = tested on: UO-31 renal

SMILES | TGI (HT29 colon) | TGI (NCI-H23 lung) | TGI (A498 renal) | TGI (U251 CNS) | TGI (HOP-92 NSCLC) | TGI (LOX IMVI melanoma) | TGI (SW-620 colon) | TGI (TK-10 renal) | TGI (ACHN renal) | TGI (UO-31 renal) | GI50 (NCI-H23 lung) | GI50 (A498 renal) | GI50 (UO-31 renal) | GI50 (HT29 colon) | GI50 (U251 CNS) | GI50 (HOP-92 NSCLC) | GI50 (LOX IMVI melanoma) | GI50 (SW-620 colon) | GI50 (TK-10 renal) | GI50 (ACHN renal)
O=C(Nc1c(O)[nH]c(=S)[nH]c1=O)c1ccccn1 | > 100 µM | > 100 µM | > 100 µM | > 100 µM | > 100 µM | > 100 µM | > 100 µM | > 100 µM | > 100 µM | > 100 µM |  |  |  |  |  |  |  |  |  | 
Cc1nc2ccc(CN(C)c3ccc(C(=O)N[C@@H](CCC(=O)O)C(=O)O)s3)cc2c(=O)[nH]1 | > 100 µM | > 100 µM | > 100 µM | > 100 µM | > 100 µM | > 100 µM | > 100 µM | > 100 µM | > 100 µM | > 100 µM | 2.62 µM | > 100 µM | < 0.01 µM |  |  |  |  |  |  | 
OCCOc1ccc(-c2cc(-c3ccccn3)nc(-c3ccccn3)c2)cc1 | > 100 µM | > 100 µM | 17 µM | > 100 µM | > 100 µM | 6.43 µM | > 100 µM | > 100 µM | 3.78 µM | 1 µM |  |  |  |  |  |  |  |  |  | 
CC1=CC2CC(C)=C(CC[C@]3(C)CC[C@H]([C@@H](C)C(=O)O)OO3)C(C)(C)C2CC1 (some centres undefined) | 0.429 µM | 2.35 µM | 3.14 µM | 1.01 µM | 0.369 µM | 0.207 µM | 0.354 µM | 3.15 µM | 2.64 µM | 2.23 µM |  |  |  |  |  |  |  |  |  | 
Cn1cc(-c2nonc2-c2c[nH]c3ccccc23)c2ccccc21 | 10.8 µM | 19.5 µM | 2.11 µM | 18.6 µM | 9.91 µM | 13 µM | 15.6 µM | 24.4 µM | 13.4 µM | 7.65 µM | 0.85 µM | 0.435 µM | 0.323 µM | 0.35 µM | 0.443 µM | 1.08 µM | 0.65 µM | 0.335 µM | 1.55 µM | 0.527 µM
C=CC(=O)Nc1ccc(Nc2nccc(-c3ccc(N4CCCC4)c(C#N)c3)n2)cc1 | > 25 µM | > 25 µM | 24.9 µM | > 25 µM | > 25 µM | > 25 µM | > 25 µM | > 25 µM | > 25 µM | > 25 µM | > 25 µM | 4.82 µM | 1.06 µM | > 25 µM | 15.4 µM | > 25 µM | > 25 µM | 21.7 µM | 10.5 µM | 2.45 µM
O=C(CC1=Nc2nnc(-c3nnc4n3C(=O)C(CC(=O)c3cccnc3)=N4)n2C1=O)c1cccnc1 | > 100 µM | > 100 µM | > 100 µM | > 100 µM | > 100 µM | > 100 µM | > 100 µM | > 100 µM | > 100 µM | > 100 µM |  |  |  |  |  |  |  |  |  | 
N#C/C(=C\c1ccccc1O)C(N)=O | > 100 µM | > 100 µM | > 100 µM | > 100 µM | > 100 µM | > 100 µM | > 100 µM | > 100 µM | > 100 µM | > 100 µM |  |  |  |  |  |  |  |  |  | 
O=[N+]([O-])c1ccc(Nc2ccccc2-c2ccccc2)c2nonc12 | 47.2 µM | 26.1 µM | 41.6 µM | 29.3 µM | 23.4 µM | 26.6 µM | 44.8 µM | 59.6 µM | 87.5 µM | 29.9 µM | 8.63 µM | 14.8 µM | 8.14 µM | 19.3 µM | 13.4 µM | 3.15 µM | 12.8 µM | 18 µM | 22.8 µM | 20.8 µM
O=C1c2ccccc2C2(O)Nc3cc(O)ccc3C12O (centres undefined) | > 100 µM | > 100 µM | > 100 µM | > 100 µM | > 100 µM | > 100 µM | > 100 µM | > 100 µM | > 100 µM |  |  |  |  |  |  |  |  |  |  | 
COc1ccc(C#Cc2ccccc2C#CCCCCO)cc1 | 24.8 µM | 40.5 µM | 66.4 µM | 25.3 µM | 47.7 µM | 30.6 µM | 34.8 µM | 35.2 µM | 45 µM | 39.6 µM | 19.2 µM | 24.1 µM | 21.2 µM | 12.3 µM | 12.7 µM | 23.5 µM | 16.9 µM | 17.8 µM | 16.7 µM | 21.7 µM
Cc1cccc(C(=O)c2cccc3ccccc23)c1C(=O)O | > 100 µM | > 100 µM | > 100 µM | > 100 µM | > 100 µM | > 100 µM | > 100 µM | > 100 µM | > 100 µM | > 100 µM |  |  |  |  |  |  |  |  |  | 
CCOc1ccccc1NC(=O)CCC(=O)OC | > 100 µM | > 100 µM | > 100 µM | > 71.1 µM | > 100 µM | > 31.6 µM | > 60.5 µM | > 100 µM | > 100 µM | > 100 µM |  |  |  |  |  |  |  |  |  | 
Cc1ccc(C)c(NC(=O)C(=O)CC(=O)C2CCOC2=O)c1 (centres undefined) | > 100 µM | > 100 µM | > 100 µM | > 100 µM | > 100 µM | > 100 µM | > 100 µM | > 100 µM | > 100 µM | > 100 µM |  |  |  |  |  |  |  |  |  | 
COc1ccc(S(=O)(=O)NC(C)C(=O)O)cc1 (centres undefined) | > 100 µM | > 100 µM | > 100 µM | > 100 µM | > 100 µM | > 100 µM | > 100 µM | > 100 µM | > 100 µM | > 100 µM |  |  |  |  |  |  |  |  |  | 
C=C(Cn1c(=O)c2ccccc2c2ccccc21)c1ccc(C(=O)Nc2ccccc2N)cc1 | > 83.8 µM | > 100 µM | > 100 µM | > 100 µM | 26.1 µM | > 100 µM | > 100 µM | > 100 µM | > 100 µM | > 63.2 µM | 30.3 µM | 30.6 µM | 2.28 µM | 13.3 µM | 16.3 µM | 0.689 µM | 7.77 µM | 58.7 µM | 33.8 µM | 43.4 µM
COC(=O)[C@@H](NC(=O)NC(=O)NC(=O)CI)C(C)C | 4.03 µM | 33.8 µM | 30.9 µM | 31.1 µM | 7.36 µM | 3.33 µM | 4.19 µM | 20.5 µM | 3.47 µM | 3.2 µM | 16.1 µM | 16.7 µM | 1.67 µM | 2.01 µM | 17.3 µM | 2.7 µM | 1.69 µM | 2.04 µM | 7.65 µM | 1.81 µM
COc1cccc2c1C(=O)c1c(O)c3c(c(O)c1C2=O)CC(O)(C(C)=O)CC3OC1CC(N)C(O)C(C)O1 (centres undefined) | 1.22 µg/mL | 0.692 µg/mL | 0.39 µg/mL | 1.84 µg/mL | 0.413 µg/mL | 1.57 µg/mL | 0.47 µg/mL | 18.6 µg/mL | 0.1 µg/mL | 5.46 µg/mL | 0.0174 µg/mL | 0.0558 µg/mL | 0.26 µg/mL | 0.0242 µg/mL | 0.0151 µg/mL | 0.0155 µg/mL | 0.0166 µg/mL |  | 0.273 µg/mL | 0.0176 µg/mL
CC1=CCC[C@@]2(C)C(CC[C@@H]2C(C)/C=C/C(C)C)c2ccc(cc2C(=O)O)C[C@@H](O)CC1 (some centres undefined) | 17.6 µM |  | 35.3 µM | 16 µM | 28.9 µM | 19 µM | 32.2 µM | 25.1 µM | 18.7 µM | 29.2 µM |  |  |  |  |  |  |  |  |  | 
COc1cccc([C@H]2CC(=O)c3cc4c(cc3N2)OCO4)c1 | 0.425 µM |  | > 100 µM | > 100 µM | > 100 µM | > 100 µM | > 100 µM | > 100 µM | > 100 µM | > 100 µM |  | 0.265 µM | 0.223 µM |  | 0.0491 µM |  | 0.273 µM | 0.0676 µM |  | 0.0763 µM
CC1[C@@H]2[C@@H](C=C3C4CCC5Cc6nc7c(nc6C[C@@]5(C)C4C[C@H](O)[C@]32CO)CC2CCC3C4=C[C@H]5O[C@@]6(O[C@@](C)(CO)C[C@@H]6O)C(C)[C@@]5(O)[C@]4(C)[C@@H](O)CC3[C@]2(C)C7)O[C@]12CCC(C)(C)O2 (some centres undefined) | 0.44 µM and 0.414 µM | 0.574 µM | 0.0841 µM and 0.165 µM | 0.0664 µM | 0.084 µM | > 3.65 µM | 0.175 µM and 0.0892 µM |  |  | 0.158 µM and 0.286 µM |  | 0.00409 µM | 0.117 µM | 0.00302 µM | < 0.000365 µM |  | 0.017 µM and 0.0071 µM | 0.0079 µM |  | 
COc1cccc(C2CC(c3cc(OC)c(OC)c(OC)c3)=NN2)c1 (centres undefined) | 27.2 µM |  | 38.6 µM | 22.8 µM | 39.2 µM | 21.8 µM | 11.5 µM | 85.2 µM | 53 µM | 38.8 µM |  | 12.9 µM | 14.4 µM | 3.2 µM | 10 µM | 11.9 µM | 9.49 µM | 3.05 µM | 23.7 µM | 21.7 µM
c1ccc(SC2(Sc3ccccc3)CCCC2)cc1 |  | > 100 µM | > 100 µM | > 100 µM | > 100 µM | > 100 µM | > 100 µM | > 100 µM | > 100 µM | > 100 µM |  |  |  |  |  |  |  |  |  | 
O=P([O-])(O)OP(=O)([O-])O.[NH-][C@H]1CCCC[C@@H]1[NH-].[OH-].[OH-].[Pt+4] | > 100 µM | 46.1 µM | 39.9 µM | 33.8 µM | 60.1 µM | > 100 µM | > 100 µM |  | 42.1 µM | 44 µM | 20.8 µM | 21.1 µM | 19.1 µM | 59.6 µM | 17.2 µM | 22 µM | 33.2 µM | 55.8 µM |  | 16.6 µM
